Source: patent US8197819B2, “Env polypeptide complexes and methods of use” (priority 2004, dated 2012)
Entries after “also recorded” stand apart in the source; their conditions may differ.

Legend:
Design in all cases: species or system HIV
gp120SF162 (17b epitope) = gp120SF162 (17b epitope) (Human immunodeficiency virus type 1 group M subtype B, UniProt P19550); assay: SPR (Biacore) upregulation of monoclonal antibody 17b binding to Env/compound complex; details: for upregulation of CD4 inducible epitopes on gp120: FIGS. 4B, 5B, antibody not stated in the legend
Description: (§1) In a second step, each of the 100 structurally identified compounds was screened for its ability to compete with CD4 binding to Env (gp120) as well as its ability to induce the desired conformational change in the HIV Env protein to expose inducible epitopes. Both binding competition and exposure of cryptic epitopes were analyzed using Biacore's SRP systems. (Biacore Inc., Piscataway, N.J.), following the manufacturer's instructions.
(§2) Surface plasmon resonance assays were performed using a BIACORE 3000 optical biosensor system (Biacore AB, Uppsala, Sweden) with simultaneous monitoring of relevant flow cells. To perform the kinetic study of the binding of HIV env to sCD4, sCD4 was immobilized using amine coupling onto CM5 sensor chip to attain 4000 response units. To perform the kinetic study of the binding of HIV env to the monoclonal antibody 17b, antibodies were immobilized using amine coupling onto a CM5 sensor chip to attain 2000 response units. Using PBS buffer (pH 7.4) with 0.05% Tween 20 and 3% DMSO, association was assessed by passing gp120SF162 (GenBank P03378; Sanchez-Pescador et al. (1985) Science, 227(4686): 484-492), with and without various controls or small molecules, over the chip surface at a flow rate of 25 μl/min. The concentration of gp120SMF162 used was 1 uM for all samples. As a negative control, a control surface coupled to 2000 response units of BSA (Pierce) was used. A buffer only control was subtracted from all sensograms. Responses were measured by assessing the maximum RUs (response units) obtained at the peak of the binding curve.
The percentage upregulation of 17b was determined by dividing the peak RU observed for the Env polypeptide/compound complex divided by the peak RU for the Env polypeptide alone.
(§3) Additional candidate small molecules were screened for CD4 binding inhibition and upregulation of CD4 inducible epitopes, e.g., mABs 17b and 48D, by HPLC and BlAcore methods as described in Examples 1 and 4 above. Each of the compounds in Table 5 below was screened three times by both methods using different lots of both gp120 and antibodies. The rounds of screening tests were additionally carried out on different dates.

gp120 (48D epitope) = target: T1, gp120 (48D epitope) (Human immunodeficiency virus type 1 group M subtype B, UniProt P19550); assay: SPR (Biacore) upregulation of monoclonal antibody 48D binding to Env/compound complex; details: Example 6 screening; FIG. 6C
T1 construct: The concentration of gp120SMF162 used was 1 uM for all samples
Description: as §2
Additional candidate small molecules were screened for CD4 binding inhibition and upregulation of CD4 inducible epitopes, e.g., mABs 17b and 48D, by HPLC and BlAcore methods as described in Examples 1 and 4 above. […]

gp120SF162 [1] = target: T2, gp120SF162 (Human immunodeficiency virus type 1 group M subtype B, UniProt P19550); assay: Example 6 screening for CD4 binding inhibition (SEC-HPLC with fluorescently-labelled CD4, and Biacore); details: three rounds
Source text: as §3
CD4 binding competition was examined in the free solution state by HPLC. Various candidate small molecules were each mixed with gp120SF162 and the resulting solution was incubated for 1 hour at 37° C. Fluorescently-labelled CD4, CD4 488, was then added to each incubated solution, and the resulting mixture was analyzed by size exclusion HPLC (SEC-HPLC), using fluorescent signal detection. The extent of competition with CD4 was determined as follows.

gp120SF162 [2] = target: T2, gp120SF162; assay: SPR (Biacore) competition: gp120 binding to immobilized sCD4 with and without small molecule; details: FIG. 1, compared to when the small molecule was not present
Description: as §1
as §2, with “The concentration of gp120SMF162 used was 1 uM for all samples. As a negative control, a control surface coupled to 2000 response units of BSA (Pierce) was used. A buffer only control was subtracted from all sensograms.” left out

COc1ccc2[nH]cc(C(=O)CN3CCN(Cc4ccccc4)CC3)c2c1 [Compound 2, 2-(4-benzylpiperazin-1-yl)-1-(5-methoxy-1H-indol-3-yl)ethanone]
upregulation of 17b (CD4 inducible epitope on gp120) (gp120SF162 (17b epitope); Example 6 screening, binding to monoclonal antibody 17b): upregulation of CD4 inducible epitopes on gp120 | upregulation of CD4 inducible epitopes on gp120, binding to monoclonal antibody 48D (gp120 (48D epitope)): upregulation of CD4 inducible epitopes on gp120 | inhibition of (competition with) CD4 binding to gp120 (gp120SF162 [1]): non-inhibition of CD4 binding to gp120

CCOC(=O)C1CCN(C(=O)c2cc3c(C)cc(C)cc3[nH]2)CC1 [Compound 5, ethyl 1-[(4,6-dimethyl-1H-indol-2-yl)carbonyl]piperidine-4-carboxylate]
inhibition of CD4 binding to Env (Env binding to the CD4 chip) (gp120SF162 [2]): inhibition of CD4 binding to Env; also recorded: inhibited binding of Env to the CD4 chip | binding of Env/small molecule complex to monoclonal antibody 17b (gp120SF162 (17b epitope); SPR, FIG. 2, in comparison to Env-sCD4 complexes): exhibited enhanced binding to monoclonal antibody 17b

COc1cc(C(=O)N2CCC(c3c[nH]c4ccccc34)CC2)cc(OC)c1OC [Compound 12, [4-(1H-indol-3-yl)-piperidin-1-yl]-(3,4,5-trimethoxy-phenyl)-methanone]
upregulation of CD4 inducible epitopes on gp120 (gp120SF162 (17b epitope); Example 6 screening): absence of upregulation of CD4 inducible epititopes on gp120 | inhibition of (competition with) CD4 binding to gp120 (gp120SF162 [1]): inhibition of CD4 binding to gp120

COc1ccccc1N1CCN(CC(=O)c2c(C)[nH]c3ccccc23)CC1 [Compound 26, 2-[4-(2-Methoxy-phenyl)-piperazin-1-yl]-1-(2-methyl-1H-indol-3-yl)-ethanone]
upregulation of CD4 inducible epitopes on gp120 (gp120SF162 (17b epitope); Example 6 screening): upregulation of CD4 inducible epititopes on gp120 | inhibition of (competition with) CD4 binding to gp120 (gp120SF162 [1]): inhibition of CD4 binding to gp120
